Measurements as given in article PMC12362615, “Design, Synthesis, and Cellular Characterization of a New Class of IPMK Kinase Inhibitors” (Journal of Medicinal Chemistry, 2025).

Experiments:
[1] = system: human U251-MG glioblastoma cells; test: CyQuant cell count / proliferation assay; format: cell-based; conditions: 48 h
Procedure: 1 Compound 1 inhibits human U251 glioblastoma cell growth and labeled inositol phosphate levels. (A) Schematic of inositol phosphate metabolism. (B) Chemical structure of compound 1, indicating moiety A (blue highlight), the core (gray highlight), and moiety B (red highlight), and the IC50 value as determined by the kinase-GLO assay. (C) CyQuant cell count assay of 10,000 human U251-MG glioblastoma cells seeded per well, treated for 48 h with DMSO vehicle or 400 nM compound 1 (n = 8, ***p = 0.0046, unpaired t test). (D) HPLC analysis of ^3H-inositol phosphates from U251-MG cells treated with 400 nM compound 1 (red bars) or DMSO (blue bars) and metabolically labeled with ^3H-inositol for 48 h, expressed as the percentage of the inositol peak from the HPLC for InsP3, InsP4, InsP5, and InsP6, as indicated, *p < 0.05 by unpaired t test Bonferroni corrected for multiple comparisons. (E) Same data as in (D) replotted with a nonzero y-axis to facilitate visualizing differences between DMSO vs. compound treatment for each indicated inositol phosphate species, *p < 0.05 by unpaired t test Bonferroni corrected for multiple comparisons.
Error represents the standard error from 3 independent assays. (B) CyQuant cellular proliferation assay of 10,000 human U251-MG glioblastoma cells seeded per well, treated for 48 h with DMSO vehicle or 10 μM 14 (n = 8, ****p adj < 0.0001 by one-way ANOVA, Dunnett’s corrected; *p < 0.05 by unpaired t test). (C) HPLC analysis of ^3H-inositol phosphates from U251-MG cells treated with 10 μM compound 14 (red bars) or DMSO (blue bars) and metabolically labeled with ^3H-inositol for 48 h, expressed as a percentage of all the peaks detectable from the HPLC, *p < 0.05, **p < 0.01, ***p < 0.001 by unpaired t test compared to DMSO-treated control for all remaining panels, n = 3. (D) Same as (C) but expressed as a percentage of the inositol HPLC peak, n = 3. (E) Same as C but expressed as a percentage of all the inositol phosphate peaks combined from the HPLC, n = 3.

[2] = Pharmacokinetic studies in mice; format: in vivo, male CD1 mice
Procedure: All the procedures related to animal handling, care, and treatment in this study were performed according to guidelines approved by the Institutional Animal Care and Use Committee (IACUC) of Pharmaron (PK-R-06012023 and PK-M-07182023), following the guidance of the Association for Assessment and Accreditation of Laboratory Animal Care (AAALAC). A group of 3 male CD1 mice (2 for exploratory PK) were dosed intravenously (IV) or intraperitoneally (IP) with a solution formulation of the tested compounds in 10% NMP, 5% Solutol in normal saline (v/v/v, 10:5:85). From each mouse, blood samples ([…]) were collected from the orbital vein such that samples were obtained at 0.083, 0.25, 0.5, 1, 2, 4, 8, and 24 h post dose. At each time point, blood samples were collected from three mice in labeled microcentrifuge tubes containing EDTA-K2 as an anticoagulant. Plasma samples were separated by centrifugation of whole blood and stored at −75 ± 15 °C until bioanalysis. All samples were processed for analysis by precipitation using acetonitrile (ACN) and analyzed with a fit-for-purpose LC/MS/MS method (the below quantifiable limit (BLOQ) was 5.0 ng/mL). Pharmacokinetic parameters were calculated by a noncompartmental analysis model using WinNonlin 8.3.

[3] = system: AKT phosphorylation in U251-MG glioblastoma cells; test: Western blots of phospho-AKT; format: cell-based, human; design: key to AKT P-Thr-308 signal intensity compared to DMSO / AKT P-Ser-473 signal intensity compared to DMSO: ns= not si gni fi cant by unpai r ed t -test
Procedure: About 3.5 × 10^6 U251 cells were seeded in 15 cm plates containing 30 mL of DMEM supplemented with 4.5 g/L D-glucose, L-glutamine, 10% FBS, 1% nonessential amino acids, and 1% penicillin–streptomycin (all from Thermo Fisher). […] Protein concentration was equalized using a Bradford assay, and samples were run on SDS-PAGE at 150 V for 1 h. Protein transfer was performed at 20 V for 1 h, membranes were blocked with 7 mL of EveryBlot blocking buffer (Bio-Rad) for 10 min. Primary antibodies used were AKT (#9272), Actin (#3700), and phospho-AKT (Ser473, #4060) at a 1:1000 dilution in EveryBlot blocking buffer, and phospho-AKT (Thr308, #13038) at a 1:400 dilution; all antibodies were from Cell Signaling Technology. After overnight incubation at 4 °C, membranes were washed and incubated with secondary antibodies (1:10,000 dilution for AKT, Actin, and P-AKT Ser473; 1:4000 for P-AKT Thr308) for 1 h. Detection was performed using Clarity Western ECL substrate (Bio-Rad) according to the manufacturer’s instructions and imaged using the Bio-Rad ChemiDoc system.

[4] = male, CD1, mouse, plasma, IV, dose 2.75 mg/kg

c1cc(-c2onc3ccc(-c4nnn[nH]4)cc23)cc(C2CCN(C3CCC3)CC2)c1 [Compound 14, 3-(3-(1-Cyclobutylpiperidin-4-yl)phenyl)-5-(1H-tetrazol-5-yl)benzo[c]isoxazole]
cell growth ([1]; 1.0 μM): decreased cell growth | cell growth, CyQuant cellular proliferation assay ([1]; 10 μM, vs DMSO): inhibits cell growth | Vss (L/kg) ([2]; IV, dose 2.75 mg/kg): increased | AUC(0-t) ([2]; male, CD1, mouse, plasma, 10 mg/kg via IV and IP administration (route of this value not stated), n = 3): 8.26 µM·h | AUC(0-t) [2, 4]: 4.6 µM·h | Cmax [2, 4]: 28.3 µM | clearance [2, 4]: 22.8 mL/min/kg | half-life [2, 4]: 1.95 h | Vd ([2]; male, CD1, mouse, plasma, IV, dose 2.75 mg/kg, read-out: Vss): 0.39 L/kg | bioavailability ([2]; male, CD1, mouse, plasma, intraperitoneal, 10 mg/kg, IP vs IV, n = 3): 82% | AKT P-Ser-473 signal intensity compared to DMSO ([3]; 10 μM): ns | AKT P-Thr-308 signal intensity compared to DMSO ([3]; 10 μM): ns | AKT P-Ser-473 signal intensity compared to DMSO ([3]; 30 μM): ns | AKT P-Thr-308 signal intensity compared to DMSO ([3]; 30 μM): ns | AKT P-Ser-473 signal intensity compared to DMSO ([3]; 50 μM): ns | AKT P-Thr-308 signal intensity compared to DMSO ([3]; 50 μM): ns | cytosolic AKT phosphorylation ([3]; after 48 h of treatment as printed in text): did not detect any changes
